From ChEMBL document CHEMBL1833872, “Improved synthesis and biological evaluation of chelator-modified α-MSH analogs prepared by copper-free click chemistry” (Bioorg Med Chem Lett, 2011) come the findings set out here.

This assay has as its target Melanocyte-stimulating hormone receptor (Mus musculus, UniProt Q01727). Nature of the assay: Displacement of [125I]-[Nle4-D-Phe7]-alpha-MSH from MC1R in mouse B16-F10 cells after 1.5 hrs by gamma counting. In kind it is cell-based. Background: In a radioligand displacement assay an active substance lowers the binding of a labelled ligand.

Chain of Melanocyte-stimulating hormone receptor (Q01727 whole entry): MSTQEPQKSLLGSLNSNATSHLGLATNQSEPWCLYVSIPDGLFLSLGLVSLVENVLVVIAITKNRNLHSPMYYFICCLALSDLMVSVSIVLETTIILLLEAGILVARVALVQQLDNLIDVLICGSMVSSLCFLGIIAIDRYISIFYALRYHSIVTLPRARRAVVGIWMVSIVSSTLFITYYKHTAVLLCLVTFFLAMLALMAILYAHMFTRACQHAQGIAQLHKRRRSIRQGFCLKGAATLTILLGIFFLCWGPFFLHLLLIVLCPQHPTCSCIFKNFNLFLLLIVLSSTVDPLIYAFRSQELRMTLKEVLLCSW

In general, IC50 refers to the midpoint of a concentration-inhibition curve. High values mean a need for much substance, low ones inhibition by little substance. `CCCC[C@H](NC(=O)[C@H](CO)NC(=O)[C@H](Cc1ccc(O)cc1)NC(=O)[C@H](CO)NCCCCCCN=[N+]=[N-])C(=O)N[C@@H](CCC(=O)O)C(=O)N[C@@H](Cc1cnc[nH]1)C(=O)N[C@H](Cc1ccccc1)C(=O)N[C@@H](CCCN=C(N)N)C(=O)N[C@@H](Cc1c[nH]c2ccccc12)C(=O)NCC(=O)N[C@@H](CCCCN)C(=O)N1CCC[C@H]1C(=O)N[C@H](C(N)=O)C(C)C` returned a half-maximal inhibitory concentration (IC50) of 0.25 nM.
